Reference: patent US7417060B2, “Aminoalcohol derivatives” (Astellas Pharma Inc., priority 2003, dated 2008)

Tested on: intravesical pressure (IVP) increase induced by carbachol
Assay: Effect on the increase in intravesical pressure induced by carbachol in anesthetized dog
Assay type: in vivo
Conditions: anesthetized female Beagle dogs; test compound 0.010 mg/kg intravenously 30 minutes before carbachol (1.8 μg/kg)
Description: Effect on the Increase in Intravesical Pressure Induced by Carbachol in Anesthetized Dog
Female Beagle dogs weighing 8.0-15.0 kg were fasted for 24 hours and maintained under halothane anesthesia. A 12F Foley catheter was lubricated with water soluble jelly, inserted into the urethral orifice and advanced approximately 10 cm until the balloon tip was placed well inside the bladder. The balloon was then inflated with 5 ml of room air and catheter slowly withdrawn just part the first resistance that was felt at the bladder neck. Urine was completely drained out through the catheter, and 30 ml of biological saline was infused. The catheter was connected to pressure transducer, and intravesical pressure (IVP) was continuously recorded. The test compound was administered intravenously at 30 minutes before the administration of carbachol (1.8 μg/kg). Percent inhibition of IVP increase by test compound was calculated by dividing IVPa (IVP increase induced by carbachol after test compound administration) by IVPb (IVP increase induced by carbachol just before test compound administration).

SMILES	Percent inhibition of IVP increase [%]
CC(C)Sc1cc(-c2ccc(CCN[C@@H](C)[C@H](O)c3ccccc3)cc2)ccc1C(=O)O.Cl [Test Compound (1), 4′-[2-[[(1S,2R)-2-Hydroxy-1-methyl-2-phenylethyl]-amino]ethyl]-3-(isopropylthio)-4-biphenylcarboxylic acid hydrochloride]	77
CC(C)Cc1cc(-c2ccc(CCN[C@@H](C)[C@H](O)c3ccccc3)cc2)ccc1C(=O)NS(C)(=O)=O.Cl [Test Compound (2), 4′-[2-[[(1S,2R)-2-Hydroxy-1-methyl-2-phenylethyl]-amino]ethyl]-3-isobutyl-N-(methylsulfonyl)-4-biphenylcarboxamide hydrochloride]	76
CS(=O)(=O)NC(=O)c1ccc(-c2ccc(CCNC[C@H](O)c3cccnc3)cc2)cc1OC1CCCCC1.Cl.Cl [Test Compound (3), 3-(Cyclohexyloxy)-4′-[2-[[(2R)-2-hydroxy-2-(3-pyridyl)ethyl]amino]ethyl]-N-(methylsulfonyl)-4-biphenylcarboxamide dihydrochloride]	89
